Test results: US9127044B2, “Cyclic depsipeptides” (NOVARTIS AG, priority 2007, dated 2015)
Like-named read-outs stand apart in the source and are kept apart here. *1 amine or outer side, *2 acyl side, *3 side chain or, on linkers, in order; H or OH if unused. Where a SMILES comes first, the peptide text is derived from it. Bridges are numbered along the chain shown (N, C = ends). [ ]: non-standard residue; d: D form. The star is where a group is joined. ξ: configuration not given here. X1 = O=C([C@@H]1CC[C@H](O)N1[*:1])[*:2]; NMeY = CN[C@@H](Cc1ccc(O)cc1)C(=O)O; Ile(3ξ) = CCC(C)[C@H](N)C(=O)O; Isovaleryl = CC(C)CC(=O)*; Isobutyryl = CC(C)C(=O)*

What was measured:
[1] = biological target: human kallikrein 7 (Homo sapiens, UniProt P49862); experiment: Kallikrein-7 inhibitory activity in vitro (fluorescence-quenched substrate); format: biochemical
Procedure: (§1) IC50 for human kallikrein can be measured using the fluorescence-quenched substrate Ac-Glu-Asp(EDANS)-Lys-Pro-Ale-Leu-Phe^Arg-Leu-Gly-Lys(DABCYL)-Glu-NH2 (where ^ indicates the scissile bond, identified by MS analysis) which can be purchased from Biosyntan (Berlin, Germany). Enzymatic reactions are conducted in 50 mM sodium citrate buffer at pH 5.6 containing 150 mM NaCl and 0.05% (w/v) CHAPS. For the determination of IC50 values the assay is performed at room temperature in 384-well plates. All final assay volumes are 30 μl. Test compounds are dissolved in 90% (v/v) DMSO/water and diluted in water (containing 0.05% (w/v) CHAPS) to 3-times the desired assay concentration. The 11 final compound concentrations are: 0.3 nM, 1 nM, 3 nM, 10 nM, 30 nM, 100 nM, 300 nM, 1 μM, 3 μM, 10 μM and 30 μM. For each assay, 10 μl water/CHAPS (±test compound) are added per well, followed by 10 μl protease solution (diluted with 1.5× assay buffer). The protease concentration in final assay solution is 0.2 nM (according to the enzyme concentrations determined by the Bradford method). After 1 hour of incubation at room temperature, the reaction is started by addition of 10 μl substrate solution (substrate dissolved in 1.5× assay buffer, final concentration is 2 μM). […] The IC50 value is calculated from the plot of percentage of inhibition vs. inhibitor concentration using non-linear regression analysis software (XLfit, Vers. 4.0; ID Business Solution Ltd., Guildford, Surrey, UK).
The fluorescence-quenched substrate Ac-Glu-Asp(EDANS)-Lys-Pro-Ale-Leu-Phe^Arg-Leu-Gly-Lys(DABCYL)-Glu-NH2 (where ^ indicates the scissile bond, identified by MS analysis) is purchased from Biosyntan (Berlin, Germany) and kept as a 5 mM stock solution in DMSO at −20° C. All other chemicals are of analytical grade.
Enzymatic reactions are conducted in 50 mM sodium citrate buffer at pH 5.6 containing 150 mM NaCl and 0.05% (w/v) CHAPS.
All protein and peptide containing solutions are handled in siliconized tubes (Life Systems Design, Merenschwand, Switzerland). The compound solutions as well as the enzyme and the substrate solutions are transferred to the 384-well plates (black Cliniplate; cat. no. 95040020 Labsystems Oy, Finland) by means of a CyBi-Well 96-channel pipettor (CyBio AG, Jena, Germany).
(§2) For fluorescence intensity (FI) measurements an Ultra Evolution reader (TECAN, Maennedorf, Switzerland) is used. The instrument is equipped with a combination of a 350 nm (20 nm bandwidth) and a 500 nm (25 nm bandwidth) bandpass filter for fluorescence excitation and emission acquisition, respectively. To increase the signal:background ratio, an appropriate dichroic mirror is employed. The optical filters and the dichroic mirror are purchased from TECAN. The fluorophores in each well are excited by three flashes per measurement.
as §1, with “For” for “IC50 for human kallikrein can be measured using the fluorescence-quenched substrate Ac-Glu-Asp(EDANS)-Lys-Pro-Ale-Leu-Phe^Arg-Leu-Gly-Lys(DABCYL)-Glu-NH2 (where ^ indicates the scissile bond, identified by MS analysis) which can be purchased from Biosyntan (Berlin, Germany). Enzymatic reactions are conducted in 50 mM sodium citrate buffer at pH 5.6 containing 150 mM NaCl and 0.05% (w/v) CHAPS. For”, “volumes were” for “volumes are”, “concentration was” for “concentration is”

[2] = biological target: T1, Human neutrophil elastase (Homo sapiens, UniProt P08246); experiment: HNE inhibitory activity in vitro (fluorescence-quenched substrate); format: biochemical
T1 construct: purchased Elastin Products Company, Inc. (EPC, Owensville, USA) SE563
T1 sequence (P08246 30-267): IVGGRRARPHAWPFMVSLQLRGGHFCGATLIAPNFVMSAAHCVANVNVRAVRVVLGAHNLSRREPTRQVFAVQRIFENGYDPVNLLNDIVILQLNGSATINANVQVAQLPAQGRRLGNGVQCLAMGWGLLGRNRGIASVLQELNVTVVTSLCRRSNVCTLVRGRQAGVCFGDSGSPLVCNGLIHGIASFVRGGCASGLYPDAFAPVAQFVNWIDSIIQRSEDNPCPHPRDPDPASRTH
Procedure: Human neutrophil elastase (cat. no. SE563) is purchased from Elastin Products Company, Inc. (EPC, Owensville, USA). The dry powder (purity >95% stated by the supplier) was dissolved in 20 mM sodium acetate buffer, pH 5.0, 50% (v/v) glycerol, and frozen at −80° C. in aliquots.
The fluorescence-quenched substrate (DABCYL-Ser-Glu-Val^Asn-Leu-Asp-Ala-Glu-Phe-EDANS, where ^ indicates the scissile bond, identified by MS analysis) was purchased from Bachem AG (Bubendorf, Switzerland), and kept as a 5 mM stock solution in DMSO at −20° C. All other chemicals were of analytical grade.
Enzymatic reactions were conducted in 100 mM Tris/HCl buffer at pH 7.5, containing 500 mM NaCl, and 0.05% (w/v) CHAPS.
All protein and peptide containing solutions are handled in siliconized tubes (Life Systems Design, Merenschwand, Switzerland).
The compound solutions as well as the enzyme and the substrate solutions are transferred to the 384-well plates (black Cliniplate; cat. no. 95040020 Labsystems Oy, Finland) by means of a CyBi-Well 96-channel pipettor (CyBio AG, Jena, Germany).
as §2

[3] = Table 11, read-out: hKallikrein7 IC 50
[4] = Table 11, read-out: human neutrophile elastase IC 50

Sequence of human kallikrein 7 (P49862 30-253): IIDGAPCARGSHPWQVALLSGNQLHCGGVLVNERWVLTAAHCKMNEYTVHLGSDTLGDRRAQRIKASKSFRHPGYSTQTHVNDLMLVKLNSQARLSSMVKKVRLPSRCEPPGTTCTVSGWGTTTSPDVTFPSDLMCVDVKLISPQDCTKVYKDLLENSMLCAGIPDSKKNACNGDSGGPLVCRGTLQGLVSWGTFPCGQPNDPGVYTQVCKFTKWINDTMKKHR

Row | IC50 [1, 3] [nM] | IC50 [2, 4] [nM] | Compound | IC50 ([1]; hKallikrein7 IC 50, Table 11) [nM] | IC50 [2] [nM] | IC50 ([1]; IC50 for human kallikrein 7) [nM] | IC50 ([1]; hKallikrein7 IC50, Table 10) [nM]
1 | 20 | 200 | CC(C)CC(=O)N[C@@H](CCC(N)=O)C(=O)N[C@@H]1C(=O)N[C@@H](CC(C)C)C(=O)N2CCC[C@@H]2C(=O)N[C@@H](Cc2ccccc2)C(=O)N[C@@H](Cc2ccc(O)cc2)C(=O)N[C@@H](C(C)C)C(=O)O[C@@H]1C [formula X] (Isovaleryl-QTL[dP]FYV; ester 2-C) | – | – | – | –
2 | – | – | CCC(C)[C@@H]1NC(=O)[C@H](Cc2ccc(O)cc2)N(C)C(=O)[C@H](C(C)CC)N2C(=O)C(CC[C@@H]2O)NC(=O)[C@H](CC(C)C)NC(=O)[C@@H](NC(=O)[C@H](CCC(=O)O)NC(=O)C(C)C)[C@@H](C)OC1=O (stereo partly shown) [example 47] | 100 | 10 | – | –
3 | 2.5 | 30 | CCC(C)C1NC(=O)C(Cc2ccc(OC(=O)OCCOC)cc2)N(C)C(=O)C(C(C)CC)N2CCCC(NC(=O)C(CC(C)C)NC(=O)C(NC(=O)C(CCC(N)=O)NC(=O)C(C)C)C(C)OC1=O)C2=O (stereo not shown) [example 28] | – | – | – | –
4 | – | – | CCC(C)C1NC(=O)C(Cc2ccc(O)cc2)N(C)C(=O)C(C(C)CC)N2C(=O)C(CCC2OCCOCCOC)NC(=O)C(CC(C)C)NC(=O)C(NC(=O)C(CCC(N)=O)NC(=O)C(C)C)C(C)OC1=O (stereo not shown) [example 16] | 15 | 5 | – | –
5 | – | – | CCC(C)C1NC(=O)C(Cc2ccc(O)cc2)N(C)C(=O)C(C(C)CC)N2C(=O)C(CCC2OCCO)NC(=O)C(CC(C)C)NC(=O)C(NC(=O)C(CCC(N)=O)NC(=O)C(C)C)C(C)OC1=O (stereo not shown) [example 14] | 10 | 5 | – | –
6 | – | – | CCC(C)[C@@H]1NC(=O)[C@H](Cc2ccc(O)cc2)N(C)C(=O)[C@H](C(C)CC)NC(=O)[C@@H]2CC[C@H](O)N2C(=O)[C@H](CC(C)C)NC(=O)[C@@H](NC(=O)[C@H](CCC(N)=O)NC(=O)C(C)C)[C@@H](C)OC1=O (stereo partly shown) [example 46] (Isobutyryl-QTL[X1][Ile(3ξ)][NMeY][Ile(3ξ)]; ester 2-C) | 10 | 100 | – | –
7 | – | – | CCCOC1CCC2NC(=O)C(CC(C)C)NC(=O)C(NC(=O)C(CCC(N)=O)NC(=O)C(C)C)C(C)OC(=O)C(C(C)CC)NC(=O)C(Cc3ccc(O)cc3)N(C)C(=O)C(C(C)CC)N1C2=O (stereo not shown) [example 5] | 8 | 5 | 9 | –
8 | – | – | CCC(C)C(=O)N[C@@H](CCC(N)=O)C(=O)N[C@@H]1C(=O)N[C@@H](CC(C)C)C(=O)NC2CC[C@H](O)N(C2=O)[C@@H](C(C)CC)C(=O)N(C)[C@@H](Cc2ccc(O)cc2)C(=O)N[C@@H](C(C)CC)C(=O)O[C@@H]1C (stereo partly shown) [formula III] | 0.4 | 10 | – | 0.4
9 | – | – | CCC(C)C(=O)N[C@@H](CCC(N)=O)C(=O)N[C@@H]1C(=O)N[C@@H](CC(C)C)C(=O)N[C@H]2CC=CN(C2=O)[C@H](C(C)CC)C(=O)N(C)[C@@H](Cc2ccc(O)cc2)C(=O)N[C@@H](C(C)CC)C(=O)O[C@@H]1C (stereo partly shown) [formula IV] | 5 | 70 | – | –
10 | 4.5 | 2.5 | CCCOC1CCC2NC(=O)C(CC(C)C)NC(=O)C(NC(=O)C(CCC(N)=O)NC(=O)C(C)C)C(C)OC(=O)C(C(C)CC)NC(=O)C(Cc3ccc(OC)cc3)N(C)C(=O)C(C(C)CC)N1C2=O (stereo not shown) [example 37] | – | – | – | –
11 | 2 | 3 | CCCOC1CCC2NC(=O)C(CC(C)C)NC(=O)C(NC(=O)C(CCC(N)=O)NC(=O)C(C)C)C(C)OC(=O)C(C(C)CC)NC(=O)C(Cc3ccc(OCc4cn(CCOCCOCCN=[N+]=[N-])nn4)cc3)N(C)C(=O)C(C(C)CC)N1C2=O (stereo not shown) [example 45] | – | – | – | –
12 | 1 | 1 | CCCOC1CCC2NC(=O)C(CC(C)C)NC(=O)C(NC(=O)C(CCC(N)=O)NC(=O)C(C)C)C(C)OC(=O)C(C(C)CC)NC(=O)C(Cc3ccc(OCc4cc(C)n(C)n4)cc3)N(C)C(=O)C(C(C)CC)N1C2=O (stereo not shown) [example 42] | – | – | – | –
13 | 3 | 25 | CCOC(=O)Oc1ccc(C[C@H]2C(=O)N[C@@H](C(C)CC)C(=O)O[C@H](C)[C@H](NC(=O)[C@H](CCC(N)=O)NC(=O)C(C)C)C(=O)N[C@@H](CC(C)C)C(=O)NC3CCCN(C3=O)[C@@H](C(C)CC)C(=O)N2C)cc1 (stereo partly shown) [example 29] | – | – | – | –
14 | 3.5 | 9 | CCC(C)[C@@H]1NC(=O)[C@H](Cc2ccc(OCC(=O)NCCOCCOCC(=O)OC(C)(C)C)cc2)N(C)C(=O)[C@H](C(C)CC)N2CCCC(NC(=O)[C@H](CC(C)C)NC(=O)[C@@H](NC(=O)[C@H](CCC(N)=O)NC(=O)C(C)C)[C@@H](C)OC1=O)C2=O (stereo partly shown) [example 44] | – | – | – | –
15 | 0.85 | 4.5 | CCCCCCOC(=O)Oc1ccc(CC2C(=O)NC(C(C)CC)C(=O)OC(C)C(NC(=O)C(CCC(N)=O)NC(=O)C(C)C)C(=O)NC(CC(C)C)C(=O)NC3CCC(O)N(C3=O)C(C(C)CC)C(=O)N2C)cc1 (stereo not shown) [example 26] | – | – | – | –
16 | 1 | 10 | CC(C)CC(=O)N[C@@H](CCC(N)=O)C(=O)N[C@@H]1C(=O)N[C@@H](CC(C)C)C(=O)N2CCC[C@@H]2C(=O)N[C@@H](Cc2ccccc2)C(=O)N(C)[C@@H](Cc2ccc(O)cc2)C(=O)N[C@@H](C(C)C)C(=O)O[C@@H]1C [formula IX] (Isovaleryl-QTL[dP]F[NMeY]V; ester 2-C) | – | – | – | –
17 | – | – | CCC(C)C1NC(=O)C(Cc2ccc(O)cc2)N(C)C(=O)C(C(C)CC)N2C(=O)C(CCC2OCC(C)C)NC(=O)C(CC(C)C)NC(=O)C(NC(=O)C(CCC(N)=O)NC(=O)C(C)C)C(C)OC1=O (stereo not shown) [example 12] | 8.5 | 6 | – | –
18 | – | – | CCC(C)[C@@H]1NC(=O)[C@H](Cc2ccc(OC(=O)OCC(C)C)cc2)N(C)C(=O)[C@H](C(C)CC)N2CCCC(NC(=O)[C@H](CC(C)C)NC(=O)[C@@H](NC(=O)[C@H](CCC(N)=O)NC(=O)C(C)C)[C@@H](C)OC1=O)C2=O (stereo partly shown) [example 27] | 3 | 20 | – | –

Row | Compound | IC50 [1, 3] [nM] | IC50 [2, 4] [nM] | IC50 ([1]; hKallikrein7 IC 50, Table 11) [nM] | IC50 [2] [nM] | IC50 ([1]; IC50 for human kallikrein 7) [nM] | IC50 ([1]; hKallikrein7 IC50, Table 10) [nM]
19 | CCC(C)C1NC(=O)C(Cc2ccc(OC(=O)OC3CCC4(C)C(=CCC5C4CCC4(C)C(C(C)CCCC(C)C)CCC54)C3)cc2)N(C)C(=O)C(C(C)CC)N2CCCC(NC(=O)C(CC(C)C)NC(=O)C(NC(=O)C(CCC(N)=O)NC(=O)C(C)C)C(C)OC1=O)C2=O (stereo not shown) [example 30] | 1050 | 4550 | – | – | – | –
